This is an account of results in PubChem BioAssay (NCI).

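How tested: cells in 96-well plates exposed to compound for 48 hours at five concentrations. Here, GI50 denotes the concentration required for 50% inhibition of growth. TGI denotes the concentration required for complete inhibition of growth.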

Some test systems named below: OVCAR-4 ovarian; NCI-H460 lung; HL-60(TB) leukemia; MOLT-4 leukemia; SF-295 CNS; SW-620 colon; LOX IMVI melanoma; UACC-257 melanoma; HS 578T breast.
Holding throughout (test): growth of human tumour cells (NCI), 48 h

With `O=C1C2Cc3ccccc3CN2C(=O)N1CCN1CCOCC1` (stereo not given), the TGI in the experiment on OVCAR-4 ovarian, in the experiment with NCI-H460 lung, in the experiment with HL-60(TB) leukemia, in the experiment with MOLT-4 leukemia, in the experiment with SF-295 CNS and in the experiment on SW-620 colon was greater than 100 µM each time. In the experiment on LOX IMVI melanoma, the TGI was greater than 100 µM.

Turning to `O=C1CCC(=O)C12CCc1ccccc12`, the TGI with OVCAR-4 ovarian, in the experiment on NCI-H460 lung, in the experiment with HL-60(TB) leukemia, in the experiment on SF-295 CNS, with SW-620 colon and with LOX IMVI melanoma was greater than 100 µM in each case.

`CC1(C)OC(=O)C(c2ccsc2)C(=O)O1`: the TGI with OVCAR-4 ovarian, with UACC-257 melanoma, in the experiment with NCI-H460 lung, in the experiment with HL-60(TB) leukemia, with MOLT-4 leukemia and in the experiment with SF-295 CNS was greater than 100 µM each time. For the same molecule, the TGI in the experiment with SW-620 colon and in the experiment on LOX IMVI melanoma was greater than 100 µM throughout.

Turning to `COC(=O)C1=CCS(=O)(=O)C1`, the TGI in the experiment with OVCAR-4 ovarian, with UACC-257 melanoma, with NCI-H460 lung, in the experiment on HL-60(TB) leukemia, in the experiment with MOLT-4 leukemia and with SF-295 CNS was greater than 100 µM throughout. In addition, the TGI in the experiment on SW-620 colon and with LOX IMVI melanoma was greater than 100 µM each time.

On to `OC1OC2COC(c3ccccc3)OC2C(O)C1O` (stereo not given), for which the TGI in the experiment with OVCAR-4 ovarian, with UACC-257 melanoma, in the experiment on NCI-H460 lung, in the experiment with HL-60(TB) leukemia, in the experiment with MOLT-4 leukemia and with SF-295 CNS was greater than 100 µM throughout. Besides, the TGI with SW-620 colon and with LOX IMVI melanoma was greater than 100 µM in each case.

On to `Nc1c(-c2ccc(-c3c(N)[n+]([O-])c4ccccc4[n+]3[O-])cc2)[n+]([O-])c2ccccc2[n+]1[O-]`, for which the TGI in the experiment on OVCAR-4 ovarian is 35.9 µM; in the experiment on UACC-257 melanoma it was 13.8 µM; in the experiment with NCI-H460 lung it was 37.3 µM; in the experiment on HL-60(TB) leukemia, greater than 100 µM; in the experiment on MOLT-4 leukemia it was greater than 100 µM; with SF-295 CNS it was 36.7 µM. Further, the TGI with SW-620 colon turned out to be 21.6 µM; with LOX IMVI melanoma it was 25.6 µM.

Consider `Fc1cccc(C2SCc3nc4ccccc4n32)c1` (stereo not given), for which the TGI with UACC-257 melanoma is 69.1 µM; with NCI-H460 lung, greater than 100 µM; in the experiment on HL-60(TB) leukemia, 62.8 µM; in the experiment on MOLT-4 leukemia, greater than 100 µM; with SF-295 CNS, greater than 100 µM; in the experiment with SW-620 colon, greater than 100 µM.

As for `O=C(NCCOCCO)c1ccc(O)cc1`, the TGI with NCI-H460 lung, in the experiment on HL-60(TB) leukemia, with MOLT-4 leukemia, in the experiment with SW-620 colon and in the experiment on LOX IMVI melanoma was greater than 100 µM in each case.

Take `O=c1cc(/C=C/c2ccccc2)c2ccc(O/C(=C\c3ccccc3)c3nc4ccccc4c(=O)o3)cc2o1`: the TGI is greater than 100 µM in the experiment with OVCAR-4 ovarian; 98.4 µM in the experiment on UACC-257 melanoma; greater than 100 µM in the experiment on NCI-H460 lung; 45.5 µM in the experiment with HL-60(TB) leukemia; 74.3 µM in the experiment with MOLT-4 leukemia; greater than 100 µM in the experiment with SF-295 CNS. The TGI in the experiment on SW-620 colon and in the experiment on LOX IMVI melanoma was greater than 100 µM in each case.

Turning to `NCCCSCC(=O)O`, the TGI with OVCAR-4 ovarian, in the experiment on UACC-257 melanoma, in the experiment with MOLT-4 leukemia, in the experiment with SF-295 CNS and in the experiment with SW-620 colon was greater than 100 µM throughout.

Take `CC(=O)Oc1cc(OC(C)=O)c(OC(C)=O)c2c1CC1C(=O)C3(CCc4ccccc43)C(=O)C1C2` (stereo not given): the TGI was 24.1 µM in the experiment with OVCAR-4 ovarian; 28.3 µM in the experiment with NCI-H460 lung; 22.4 µM in the experiment with HL-60(TB) leukemia; 17.3 µM in the experiment with SF-295 CNS; 42.7 µM with SW-620 colon; 26.2 µM with LOX IMVI melanoma.

In the case of `C=C1[C@@H]2CCC(C)(C)[C@H]1CCC(=O)[C@@H]2C(=O)OC`, the TGI in the experiment with OVCAR-4 ovarian, in the experiment with UACC-257 melanoma, in the experiment with NCI-H460 lung, in the experiment on HL-60(TB) leukemia, with MOLT-4 leukemia and in the experiment with SF-295 CNS was greater than 100 µM each time. The TGI in the experiment on SW-620 colon and in the experiment with LOX IMVI melanoma was greater than 100 µM throughout.

`CCN(CC)[C@@H]1c2cc3c(cc2C(c2cc(OC)c(O)c(OC)c2)C2C(=O)CO[C@@H]21)OCO3` (stereo not given in full): the TGI in the experiment on OVCAR-4 ovarian, with UACC-257 melanoma, in the experiment with NCI-H460 lung, with HL-60(TB) leukemia, in the experiment with MOLT-4 leukemia and in the experiment with SF-295 CNS was greater than 100 µM in each case. Moreover, the TGI with SW-620 colon and with LOX IMVI melanoma was greater than 100 µM each time.

On to `O=C1OC(/C=C/c2ccccc2)C(=O)C1=O` (stereo not given), for which the TGI in the experiment with OVCAR-4 ovarian, in the experiment on UACC-257 melanoma, in the experiment on NCI-H460 lung, in the experiment with HL-60(TB) leukemia, in the experiment on MOLT-4 leukemia and in the experiment on SF-295 CNS was greater than 100 µM throughout. Besides, the TGI in the experiment with SW-620 colon was greater than 100 µM.

For the molecule `OC1/C(=C/c2ccccc2)CNC/C1=C\c1ccccc1` (stereo not given), the TGI in the experiment with OVCAR-4 ovarian, with UACC-257 melanoma, in the experiment on NCI-H460 lung, in the experiment with HL-60(TB) leukemia, with MOLT-4 leukemia and in the experiment on SF-295 CNS was greater than 100 µM in each case. Besides, the TGI in the experiment with SW-620 colon and in the experiment on LOX IMVI melanoma was greater than 100 µM throughout.

Turning to `O=c1c(-c2nc3ccccc3[nH]2)cc2ccccc2n1Cc1cn(Cc2ccc(F)cc2)nn1`, the GI50 in the experiment with OVCAR-4 ovarian is 1.35 µM; in the experiment with UACC-257 melanoma, greater than 100 µM; with NCI-H460 lung it was 0.0435 µM; in the experiment on MOLT-4 leukemia, 0.233 µM; in the experiment on SF-295 CNS, 0.253 µM; with SW-620 colon, 0.0672 µM. Further, the GI50 was 0.084 µM with LOX IMVI melanoma and 0.0546 µM with HS 578T breast. Further, the TGI in the experiment on OVCAR-4 ovarian was greater than 100 µM; in the experiment on UACC-257 melanoma, greater than 100 µM; with NCI-H460 lung, greater than 100 µM; with MOLT-4 leukemia, greater than 100 µM; in the experiment on SF-295 CNS, 11 µM; in the experiment on SW-620 colon, greater than 100 µM. The TGI in the experiment on LOX IMVI melanoma is greater than 100 µM; with HS 578T breast it was 1.18 µM.

`CC(=O)c1ccc(-c2ccc(C(C)=O)s2)s1`: the TGI in the experiment on OVCAR-4 ovarian, with UACC-257 melanoma, in the experiment with NCI-H460 lung, in the experiment on HL-60(TB) leukemia, in the experiment on MOLT-4 leukemia and in the experiment with SF-295 CNS was greater than 100 µM throughout. For the same molecule, the TGI in the experiment with SW-620 colon and in the experiment with LOX IMVI melanoma was greater than 100 µM in each case.
